Results taken from patent US9131690B2, “Macrocyclic picolinamides as fungicides” (Dow AgroSciences LLC, priority 2012, dated 2015).
Like-named read-outs stand apart in the source and are kept apart here.

Assays:
[1] = tested on: Mycosphaerella graminicola; Anamorph: Septoria tritici; test: Fungicidal activity: Leaf Blotch of Wheat (SEPTTR), wheat plants variety Yuma; type: in vivo; details: Zymoseptoria tritici
Description: Evaluation of Fungicidal Activity: Leaf Blotch of Wheat (Mycosphaerella graminicola; Anamorph: Septoria tritici; Bayer Code […]) Wheat plants (variety Yuma) were grown from seed in a greenhouse in 50% mineral soil/50% soil-less Metro mix until the first leaf was fully emerged, with 7-10 seedlings per pot. These plants were inoculated with an aqueous spore suspension of Septoria tritici either prior to or after fungicide treatments. After inoculation the plants were kept in 100% relative humidity (one day in a dark dew chamber followed by two to three days in a lighted dew chamber) to permit spores to germinate and infect the leaf. The plants were then transferred to a greenhouse at 20° C. for disease to develop.

[2] = tested on: Puccinia triticina. Synonym: Puccinia recondite f. sp. tritici; test: Fungicidal activity: Wheat Brown Rust (PUCCRT), wheat plants variety Yuma; type: in vivo; set-up: key to PUCCRT 3DC Disease Control: A: 50-100; B: More than 0-Less than 50; C: Not Tested; D: No activity noticed in this bioassay; details: for pest or weed control at 100 ppm: Puccinia triticina
Description: Evaluation of Fungicidal Activity: Wheat Brown Rust (Puccinia triticina. Synonym: Puccinia recondite f. sp. tritici; Bayer Code PUCCRT) Wheat plants (variety Yuma) were grown from seed in a greenhouse in 50% mineral soil/50% soil-less Metro mix until the first leaf was fully emerged, with 7-10 seedlings per pot. These plants were inoculated with an aqueous spore suspension of Puccinia recondite f. sp. tritici either prior to or after fungicide treatments. After inoculation the plants were kept in 100% relative humidity overnight to permit spores to germinate and infect the leaf. The plants were then transferred to a greenhouse set at 24 C for disease to develop.

[3] = 24 h, 1 Day Protectant, read-out: SEPTTR 1DP Disease Control
[4] = 72 h, 3 Day Curative, read-out: SEPTTR 3DC Disease Control
[5] = 24 h, 1 Day Protectant, read-out: PUCCRT 1DP Disease Control
[6] = 72 h, 3 Day Curative, read-out: PUCCRT 3DC Disease Control

melting point [°C] | Structure (SMILES) | pest or weed control at 100 ppm [1, 3] [%] | pest or weed control at 100 ppm [1, 4] [%] | pest or weed control at 100 ppm [2, 5] [%] | pest or weed control at 100 ppm [2, 6] [%] | PUCCRT 3DC Disease Control ([2]; 100 ppm, 3 Day Curative)
192 to 194 | COc1ccnc(C(=O)N[C@H]2COC(=O)[C@H](Cc3ccc(Cl)cc3)[C@@H](OC(=O)C(C)C)[C@H](C)OC2=O)c1O [Compound 9] | 50 to 100 | 0 to 50 | 50 to 100 | 50 to 100 | 
184 to 185 | COc1ccnc(C(=O)N[C@H]2COC(=O)[C@H](Cc3ccc(F)cc3F)[C@@H](OC(=O)C(C)C)[C@H](C)OC2=O)c1O [Compound 10] | 50 to 100 | 0 to 50 | 50 to 100 | 50 to 100 | 
186 to 191 | COc1ccnc(C(=O)N[C@H]2COC(=O)[C@H](CI)[C@@H](OC(=O)C(C)C)[C@H](C)OC2=O)c1O [Compound 11] | 50 to 100 | 0 to 50 | 50 to 100 | 50 to 100 | 
214 to 216 | COc1ccnc(C(=O)N[C@H]2COC(=O)[C@H](Cc3ccc(-c4ccccc4)cc3)[C@@H](OC(=O)C(C)C)[C@H](C)OC2=O)c1O [Compound 12] | 50 to 100 | 0 to 50 | 50 to 100 | 0 to 50 | 
182 to 186 | COc1ccnc(C(=O)N[C@H]2COC(=O)[C@H](Cc3cccc(-c4ccccc4)c3)[C@@H](OC(=O)C(C)C)[C@H](C)OC2=O)c1O [Compound 13] | 50 to 100 | 0 to 50 | 50 to 100 | 0 to 50 | 
169 to 175 | COc1ccnc(C(=O)N[C@H]2COC(=O)[C@H](Cc3cncnc3)[C@@H](OC(=O)C(C)C)[C@H](C)OC2=O)c1O [Compound 14] | 0 to 50 | 0 to 50 | 50 to 100 | 50 to 100 | 
192 to 197 | COc1ccnc(C(=O)N[C@H]2COC(=O)[C@H](Cc3cccc4ccccc34)[C@@H](OC(=O)C(C)C)[C@H](C)OC2=O)c1O [Compound 15] | 50 to 100 | 0 to 50 | 50 to 100 | 0 to 50 | 
188 to 190 | COc1ccnc(C(=O)N[C@H]2COC(=O)[C@H](Cc3cccc(C(F)(F)F)c3)[C@@H](OC(=O)C(C)C)[C@H](C)OC2=O)c1O [Compound 16] | 50 to 100 | 0 to 50 | 50 to 100 | 0 to 50 | 
161 to 165 | C=CC[C@H]1C(=O)OC[C@H](NC(=O)c2nccc(OC)c2O)C(=O)O[C@@H](C)[C@@H]1OC(=O)C(C)C [Compound 17] | 50 to 100 | 0 to 50 | 50 to 100 | 50 to 100 | 
146 to 148 | CCCC/C=C/C[C@H]1C(=O)OC[C@H](NC(=O)c2nccc(OC)c2O)C(=O)O[C@@H](C)[C@@H]1OC(=O)C(C)C [Compound 18] | 50 to 100 | 0 to 50 | 50 to 100 |  | D
48 to 50 | COc1ccnc(C(=O)N[C@H]2COC(=O)[C@H](CCOC(=O)c3ccccc3)[C@@H](OC(=O)C(C)C)[C@H](C)OC2=O)c1OCOC(=O)C(C)C [Compound 19, 2-((3S,7R,8R,9S)-8-(isobutyryloxy)-3-(3-(isobutyryloxymethoxy)-4-methoxypicolinamido)-9-methyl-2,6-dioxo-1,5-dioxonan-7-yl)ethyl benzoate] | 50 to 100 | 0 to 50 | 50 to 100 | 50 to 100 | 
